Laboratory results reported in the supplement of paper PMC10307832.

Assays:
Experiment in all cases: relative viability (nuclei count vs DMSO), 5 days (fraction); higher = more cells survive
[1] = compound: Cc1cc([C@@H](C)Nc2ccccc2C(=O)O)c2nc(N3CCOCC3)cc(=O)n2c1 [AZD6482] + CS(=O)(=O)CCNCc1ccc(-c2ccc3ncnc(Nc4ccc(OCc5cccc(F)c5)c(Cl)c4)c3c2)o1 [Lapatinib] (partner 2 µM)
In short: (§1)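 Lung cancer cell lines in 1536-well plates were dosed by pin tool the day after seeding, either with one drug alone or with a fixed anchor-drug dose plus five library-drug doses (not always all listed) in √10 steps. After 5 days, cells were fixed and their nuclei stained in one step (final 0.05% Triton X-100, 1% formaldehyde, 1 ug/ml Hoechst), then counted on 4× images. Relative viability is the nuclei count in treated wells divided by that in vehicle wells. Values are medians of duplicate plates.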

[2] = compound: COc1cc2nc(N3CCCN(C)CC3)nc(NC3CCN(Cc4ccccc4)CC3)c2cc1OC + C[C@]1(O)C[C@@H](c2nc(-c3ccc4ccc(-c5ccccc5)nc4c3)c3c(N)nccn32)C1 [Linsitinib] (partner 1 µM)
In short: as §1

[3] = compound: COc1cc2nc(N3CCCN(C)CC3)nc(NC3CCN(Cc4ccccc4)CC3)c2cc1OC + Nc1nc2[nH]cc(CCc3ccc(C(=O)N[C@@H](CCC(=O)O)C(=O)O)cc3)c2c(=O)[nH]1 [Pemetrexed] (partner 0.2 µM)
In short: as §1

[4] = compound: COc1cc2nc(N3CCCN(C)CC3)nc(NC3CCN(Cc4ccccc4)CC3)c2cc1OC + Cc1nc(Nc2ncc(C(=O)Nc3c(C)cccc3Cl)s2)cc(N2CCN(CCO)CC2)n1 [Dasatinib] (partner 0.075 µM)
In short: as §1

Cell Line | relative viability ([1]; first compound 0.08 µM) | relative viability ([1]; first compound 0.253 µM) | relative viability ([1]; first compound 0.8 µM) | relative viability ([1]; first compound 8 µM) | relative viability ([2]; first compound 0.2 µM) | relative viability ([2]; first compound 0.6325 µM) | relative viability ([2]; first compound 2 µM) | relative viability ([2]; first compound 6.325 µM) | relative viability ([3]; first compound 0.2 µM) | relative viability ([3]; first compound 0.6325 µM) | relative viability ([3]; first compound 2 µM) | relative viability ([3]; first compound 6.325 µM) | relative viability ([4]; first compound 0.2 µM) | relative viability ([4]; first compound 0.6325 µM) | relative viability ([4]; first compound 2 µM) | relative viability ([4]; first compound 6.325 µM) | relative viability ([1]; first compound 2.53 µM)
NCI-H520 | 0.644 | 0.397 | 0.619 | 0.263 | 1.13 | 0.931 | 1.1 | 0.747 | 0.608 | 0.622 | 0.573 | 0.183 | 0.217 | 0.228 | 0.252 | 0.187 | –
RERF-LC-KJ | 0.752 | 0.836 | 0.705 | 0.67 | 0.883 | 0.856 | 0.894 | 0.886 | 0.419 | 0.455 | 0.464 | 0.447 | 0.805 | 0.812 | 1.01 | 0.567 | 0.791
A-427 | 0.97 | 0.869 | 1.08 | 1.1 | 1.13 | 1.06 | 1.13 | 1.18 | 0.899 | 1 | 1.03 | 1.03 | 0.64 | 0.707 | 0.749 | 0.651 | 0.777
NCI-H1792 | 0.814 | 0.815 | 0.879 | 0.598 | 0.61 | 0.512 | 0.496 | 0.598 | 0.74 | 0.826 | 0.985 | 0.752 | 0.89 | 0.781 | 0.824 | 0.816 | 0.628
SK-LU-1 | – | 0.76 | 0.849 | 0.513 | 0.996 | 1.07 | 0.886 | 0.724 | 0.952 | 0.949 | 1.03 | 0.889 | 0.21 | 0.159 | 0.206 | 0.119 | 0.687
PC-3 [JPC-3] | 0.438 | 0.433 | 0.438 | 0.422 | 1 | 0.931 | 1.01 | 0.903 | 0.972 | 1.15 | 1.11 | 1.01 | 0.954 | 0.908 | 1.08 | 1 | 0.349
EMC-BAC-2 | 0.852 | 0.869 | 0.886 | 0.828 | 0.799 | 0.815 | 0.903 | 0.787 | 0.437 | 0.402 | 0.413 | 0.486 | 0.345 | 0.305 | 0.327 | 0.371 | 0.695
LK-2 | 1.13 | 0.645 | 0.959 | 0.815 | 0.472 | 0.539 | 0.624 | 0.644 | 0.311 | 0.276 | 0.296 | 0.273 | 0.35 | 0.341 | 0.261 | 0.324 | 0.767
NCI-H2126 | 0.635 | 0.644 | 0.636 | 0.49 | 0.69 | 0.707 | 0.724 | 0.708 | 0.74 | 0.623 | 0.637 | 0.644 | 0.583 | 0.678 | 0.597 | 0.502 | 0.519
